Laboratory results published in ChEMBL document CHEMBL5113477, “Membrane acting Povarov-Doebner derived compounds potently disperse preformed multidrug resistant Gram-positive bacterial biofilms” (Eur J Med Chem, 2022).
The source made the active and inactive calls.

Experiments:
[1] = system: Staphylococcus aureus; assay: (§1) Synergistic antibiofilm activity against methicillin-resistant Staphylococcus aureus USA 300 in TSB broth assessed as dispersal of glucose-induced biofilm at 1 ug/ml preincubated with glucose for 48 hrs followed by compound addition and further incubated for 24 hrs in presence of 1 ug/ml Bithionol and AgNO3 by crystal violet staining based analysis; type: functional; conditions: dose 1 µg/ml
[2] = system: Enterococcus faecalis; assay: Antibiofilm activity against vancomycin-resistant Enterococcus faecalis ATCC 51575 in TSB broth assessed as dispersal of glucose-induced biofilm at 8 to 16 ug/ml preincubated with glucose for 48 hrs followed by compound addition and measured after 24 hrs by crystal violet staining based analysis; type: functional; conditions: dose 8-16 µg/ml, at 8 to 16 µg/mL
[3] = system: Erythrocyte; assay: Hemolytic activity in sheep RBC at 10 times MIC incubated for 30 mins by spectrophotometry; type: toxicity, cell-based, Ovis aries; conditions: 0.5 h
[4] = system: Staphylococcus aureus; assay: Antibacterial activity against methicillin-resistant Staphylococcus aureus USA 300 (ARLG 1570) assessed as reduction in visible bacterial growth incubated for 18 to 20 hrs by CLSI based broth microdilution analysis; type: functional; conditions: time 18-20 hrs
[5] = system: Enterococcus faecalis; assay: Antibacterial activity against Enterococcus faecalis ATCC 29212 assessed as reduction in visible bacterial growth incubated for 18 to 20 hrs by CLSI based broth microdilution analysis; type: functional; conditions: time 18-20 hrs
[6] = system: Enterococcus faecalis; assay: (§2) Synergistic antibiofilm activity against vancomycin-resistant Enterococcus faecalis ATCC 51575 in TSB broth assessed as dispersal of glucose-induced biofilm by measuring fractional inhibitory concentration index preincubated with glucose for 48 hrs followed by compound addition and further incubated for 24 hrs in presence of Bithionol by crystal violet staining based checkerboard assay; type: functional
[7] = system: Staphylococcus aureus; assay: Antibacterial activity against methicillin-resistant Staphylococcus aureus USA 300 assessed as reduction in visible bacterial growth incubated for 18 to 20 hrs by CLSI based broth microdilution analysis; type: functional; conditions: time 18-20 hrs
[8] = system: Staphylococcus aureus; assay: as §2, with “methicillin-resistant Staphylococcus aureus USA 300” for “vancomycin-resistant Enterococcus faecalis ATCC 51575”, “Nitroxoline” for “Bithionol”; type: functional
[9] = system: Staphylococcus aureus; assay: Bactericidal activity against exponential phase of methicillin-resistant Staphylococcus aureus USA 300 at 1 to 4 times MIC incubated for 2 to 8 hrs by time kill assay; type: functional, organism-based; conditions: time 2-8 hrs
[10] = system: Staphylococcus aureus; assay: (§3) Synergistic antibiofilm activity against methicillin-resistant Staphylococcus aureus USA 300 in TSB broth assessed as dispersal of glucose-induced biofilm by measuring Nitroxoline MBEC preincubated with glucose for 48 hrs followed by compound addition and measured after 24 hrs by crystal violet staining based checkerboard assay; type: functional
[11] = system: Staphylococcus aureus; assay: Antibacterial activity against methicillin-resistant Staphylococcus aureus USA 300 (ARLG 1561) assessed as reduction in visible bacterial growth incubated for 18 to 20 hrs by CLSI based broth microdilution analysis; type: functional; conditions: time 18-20 hrs
[12] = system: Staphylococcus aureus; assay: Synergistic antibiofilm activity against methicillin-resistant Staphylococcus aureus USA 300 in TSB broth assessed as dispersal of glucose-induced biofilm with distribution of ruptured bacteria components and debris at 4 ug/ml preincubated with glucose for 48 hrs followed by compound addition and further incubated for 24 hrs in presence of Bithionol by SEM analysis; type: functional, organism-based; conditions: dose 4.0 µg/ml
[13] = system: Enterococcus faecalis; assay: as §3, with “vancomycin-resistant Enterococcus faecalis ATCC 51575” for “methicillin-resistant Staphylococcus aureus USA 300”; type: functional
[14] = system: Enterococcus faecalis; assay: Antibiofilm activity against vancomycin-resistant Enterococcus faecalis ATCC 51575 in TSB broth assessed as dispersal of glucose-induced biofilm preincubated with glucose for 48 hrs followed by compound addition and measured after 24 hrs by crystal violet staining based analysis; type: functional
[15] = system: Staphylococcus aureus; assay: Antibiofilm activity against methicillin-resistant Staphylococcus aureus ATCC 33592 in TSB broth assessed as dispersal of glucose-induced biofilm at 8 to 16 ug/ml preincubated with glucose for 48 hrs followed by compound addition and measured after 24 hrs by crystal violet staining based analysis; type: functional; conditions: dose 8-16 µg/ml, at 8 to 16 µg/mL
[16] = system: Cell membrane; assay: Induction of cell membrane disruption in Staphylococcus aureus ATCC 25923 assessed as appearance of hairy protrusions at 2 ug/ml incubated for 30 mins by SEM analysis; type: subcellular; conditions: dose 2.0 µg/ml
[17] = system: Staphylococcus aureus; assay: Inhibition of biofilm formation in methicillin-resistant Staphylococcus aureus USA 300 in TSB broth at 0.0078 to 4 ug/ml incubated for 48 hrs in presence of glucose by crystal violet staining based analysis; type: functional, organism-based; conditions: dose 0.0078-4 µg/ml
[18] = system: Enterococcus faecium; assay: as §3, with “vancomycin-resistant Enterococcus faecium ATCC 700221” for “methicillin-resistant Staphylococcus aureus USA 300”; type: functional
[19] = system: Staphylococcus aureus; assay: Inhibition of protein synthesis in Staphylococcus aureus ATCC 25923 at 0.25 to 8 ug/ml by [3H]-I-leucine incorporation assay; type: functional; conditions: dose 0.25-8 µg/ml
[20] = system: Staphylococcus aureus; assay: Antibacterial activity against methicillin-resistant Staphylococcus aureus USA 300 (ARLG 1644) assessed as reduction in visible bacterial growth incubated for 18 to 20 hrs by CLSI based broth microdilution analysis; type: functional; conditions: time 18-20 hrs
[21] = system: Staphylococcus aureus; assay: as §1, with “biofilm” for “biofilm at 1 ug/ml”, “of” for “of 1 ug/ml”, “Bithionol” for “Bithionol and AgNO3”, “checkerboard assay” for “analysis”; type: functional
[22] = system: Staphylococcus aureus; assay: Bactericidal activity against persister methicillin-resistant Staphylococcus aureus USA 300 at 1 times MIC incubated for 2 to 8 hrs by time kill assay; type: functional, organism-based; conditions: time 2-8 hrs
[23] = system: Enterococcus faecium; assay: as §2, with “faecium” for “faecalis”, “700221” for “51575”, “biofilm” for “biofilm by measuring fractional inhibitory concentration index”; type: functional
[24] = system: Staphylococcus aureus; assay: as §3, with “Bithionol” for “Nitroxoline”; type: functional
[25] = system: Enterococcus faecium; assay: as §2, with “faecium” for “faecalis”, “700221” for “51575”, “biofilm” for “biofilm by measuring fractional inhibitory concentration index”, “Nitroxoline” for “Bithionol”; type: functional
[26] = system: Enterococcus faecalis; assay: as §2, with “biofilm” for “biofilm by measuring fractional inhibitory concentration index”, “Nitroxoline” for “Bithionol”; type: functional
[27] = system: Enterococcus faecalis; assay: as §2, with “Bithionol MBEC” for “fractional inhibitory concentration index”, “measured after” for “further incubated for”, “hrs” for “hrs in presence of Bithionol”; type: functional
[28] = system: Staphylococcus aureus; assay: Antibacterial activity against methicillin-resistant Staphylococcus aureus USA 300 (ARLG 1663) assessed as reduction in visible bacterial growth incubated for 18 to 20 hrs by CLSI based broth microdilution analysis; type: functional; conditions: time 18-20 hrs
[29] = system: Staphylococcus aureus; assay: Antibiofilm activity against methicillin-resistant Staphylococcus aureus USA 300 in TSB broth assessed as dispersal of glucose-induced biofilm at 8 to 16 ug/ml preincubated with glucose for 48 hrs followed by compound addition and measured after 24 hrs by crystal violet staining based analysis; type: functional; conditions: dose 8-16 µg/ml, at 8 to 16 µg/mL
[30] = system: Staphylococcus aureus; assay: Inhibition of RNA synthesis in Staphylococcus aureus ATCC 25923 at 0.25 to 8 ug/ml by [5-3H]-uridine incorporation assay; type: functional, organism-based; conditions: dose 0.25-8 µg/ml
[31] = system: Staphylococcus aureus; assay: Synergistic antibiofilm activity against methicillin-resistant Staphylococcus aureus USA 300 in TSB broth assessed as dispersal of glucose-induced biofilm preincubated with glucose for 48 hrs followed by compound addition and further incubated for 24 hrs in presence of Nitroxoline by crystal violet staining based checkerboard assay; type: functional
[32] = system: Staphylococcus aureus; assay: Bactericidal activity against persister methicillin-resistant Staphylococcus aureus USA 300 at 1 times MIC incubated for 4 hrs by time kill assay; type: functional
[33] = system: Enterococcus faecium; assay: Inhibition of biofilm formation in vancomycin-resistant Enterococcus faecium ATCC 700221 in TSB broth at 0.0078 to 4 ug/ml incubated for 48 hrs in presence of glucose by crystal violet staining based analysis; type: functional, organism-based; conditions: dose 0.0078-4 µg/ml

Oc1ccc([C@@H]2Nc3ccc(S(F)(F)(F)(F)F)cc3[C@H]3[C@@H]4CC[C@@H](C4)[C@H]32)cc1
0.28: fractional inhibitory concentration index (FICI) [8]
0.5 µg/mL: MBEC [18] | MIC [28]
100%: Activity [32]
1 µg/mL: MIC [4] | MIC [7] | MIC [20] | MBEC [23] | MBEC [24] | MBEC [31]
>80%: Activity [1]
2 µg/mL: MBC [4] | MBC [5] | MIC [5] | MBC [7] | MBC [11] | MIC [11] | MBEC [13] | MBC [20] | MBC [28]
70%: Activity [2] | Activity [15] | Activity [29]
4 µg/mL: MBEC [10] | MBEC [21] | MBEC [25] | MBEC [26] | MBEC [27]
16 µg/mL: MBEC [14]
Non-Toxic: Activity [3]
0.5: fractional inhibitory concentration index (FICI) [6]
active: Activity [9] | Activity [12] | Activity [16] | inhibition [17] | inhibition [19] | Activity [22] | inhibition [30] | inhibition [33]
